# Results published in patent US8822449B2, “Substituted aminoindanes and analogs thereof, and the pharmaceutical use thereof” (Sanofi, priority 2008, dated 2014).
# Molecular target: T1, sodium-proton exchanger of subtype 3 (NHE3) (Homo sapiens, UniProt P48764)
# T1 construct: expressed in transfected cells
# T1 sequence (P48764 26-834): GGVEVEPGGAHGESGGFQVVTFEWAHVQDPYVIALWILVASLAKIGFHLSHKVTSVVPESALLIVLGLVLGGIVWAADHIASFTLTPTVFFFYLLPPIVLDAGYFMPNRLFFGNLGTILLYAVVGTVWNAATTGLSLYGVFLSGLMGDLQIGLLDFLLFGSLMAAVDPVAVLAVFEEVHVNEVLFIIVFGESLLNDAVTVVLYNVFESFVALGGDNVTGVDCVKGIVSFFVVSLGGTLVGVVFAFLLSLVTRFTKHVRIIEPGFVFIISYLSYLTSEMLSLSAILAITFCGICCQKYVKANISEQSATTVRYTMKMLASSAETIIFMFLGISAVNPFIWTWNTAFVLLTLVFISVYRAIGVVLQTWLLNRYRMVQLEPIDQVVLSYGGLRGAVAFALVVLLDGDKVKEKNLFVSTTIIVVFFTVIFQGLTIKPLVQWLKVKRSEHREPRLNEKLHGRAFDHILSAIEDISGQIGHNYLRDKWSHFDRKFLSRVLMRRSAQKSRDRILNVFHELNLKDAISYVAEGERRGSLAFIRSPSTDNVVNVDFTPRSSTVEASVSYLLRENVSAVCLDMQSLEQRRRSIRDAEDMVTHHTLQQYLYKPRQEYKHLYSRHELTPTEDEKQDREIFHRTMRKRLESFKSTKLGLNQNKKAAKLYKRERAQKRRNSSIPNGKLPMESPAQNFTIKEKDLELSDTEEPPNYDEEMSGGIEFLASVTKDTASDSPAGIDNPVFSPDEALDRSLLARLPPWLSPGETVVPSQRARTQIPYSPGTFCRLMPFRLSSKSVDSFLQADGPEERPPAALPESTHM
# Assay: Recovery of intracellular pH (pHi) after acidification in LAP1 cells stably expressing NHE3 (BCECF fluorescence, FLIPR)
# Assay type: cell-based
# Settings: LAP1 cells stably expressing NHE3; pH recovery after acidification; range 1 is % inhibition at 10 μM; read-out: Activity range (inhibitory effect on NHE3)
row,SMILES,IC50
1,"CN(c1ccc(O[C@H]2c3cc(Cl)cc(Cl)c3C[C@@H]2N2CC[C@@H](O)C2)cc1)S(C)(=O)=O [Example 698, N-{4-[(1S,2S)-4,6-dichloro-2-((R)-3-hydroxypyrrolidin-1-yl)indan-1-yloxy]phenyl}-N-methylmethanesulfonamide]",< 1 µM
2,"N[C@@H]1CCCN([C@@H]2Cc3ccccc3[C@H]2Oc2ccc(N3CCNCC3)cc2)C1 (racemic) [Example 76, (R)-1-[rac-trans-(1,2)-1-(4-piperazin-1-ylphenoxy)indan-2-yl]piperidin-3-ylamine]",1 to 10 µM
3,"Cc1nnc(C)n1-c1ccc(O[C@H]2c3cc(Cl)cc(Cl)c3C[C@@H]2N2CCS(=O)(=O)CC2)c(F)c1 [Example 565, 4-{trans-(1S,2S)-4,6-dichloro-1-[4-(3,5-dimethyl-[1,2,4]triazol-4-yl)-2-fluorophenoxy]indan-2-yl}thiomorpholine 1,1-dioxide]",< 1 µM
4,"CS(=O)(=O)c1nccn1-c1ccc(O[C@H]2c3cc(Cl)cc(F)c3C[C@@H]2NC2CCCC2)c(F)c1 [Example 754, {trans-(1S,2S)-6-Chloro-4-fluoro-1-[2-fluoro-4-(2-methanesulfonyl-imidazol-1-yl)-phenoxy]-indan-2-yl}-cyclopentyl-amine]",< 1 µM
5,"Cc1nnc(C)n1-c1ccc(O[C@H]2c3cc(Cl)cc(Cl)c3C[C@@H]2N2CC[C@H](O)C2)cc1 [Example 206, (S)-1-{trans-(1S,2S)-4,6-dichloro-1-[4-(3,5-dimethyl-[1,2,4]triazol-4-yl)phenoxy]indan-2-yl}pyrrolidin-3-ol]",< 1 µM
6,"CN1CCCN([C@H]2Cc3c(Cl)cc(Cl)cc3[C@@H]2Oc2ccc(C#N)cc2F)CC1 [Example 556, 4-[trans-(1S,2S)-4,6-dichloro-2-(4-methyl-[1,4]diazepan-1-yl)indan-1-yloxy]-3-fluorobenzonitrile]",< 1 µM
7,"Cc1nnc(C)n1-c1ccc(O[C@H]2c3cc(Cl)cc(Cl)c3C[C@@H]2N2CC[C@@H](O)C2)c(F)c1 [Example 130, (R)-1-{trans-(1S,2S)-4,6-dichloro-1-[4-(3,5-dimethyl-[1,2,4]triazol-4-yl)-2-fluorophenoxy]indan-2-yl}pyrrolidin-3-ol]",< 1 µM
8,"CS(=O)(=O)c1nccn1-c1ccc(O[C@H]2c3cc(Cl)cc(Cl)c3C[C@@H]2N2CC[C@@H](O)C2)cc1 [Example 731, (R)-1-{trans-(1S,2S)-4,6-Dichloro-1-[4-(2-methanesulfonyl-imidazol-1-yl)-phenoxy]-indan-2-yl}-pyrrolidin-3-ol]",< 1 µM
9,"CN1CCC2CN([C@H]3Cc4c(Cl)cc(Cl)cc4[C@@H]3Oc3ccc(S(C)(=O)=O)cc3)CC21 (single isomer, unassigned) [Example 581]",< 1 µM
10,"NC(=O)Nc1cccc(O[C@@H]2c3ccccc3C[C@H]2N2CCC[C@@H](N)C2)c1 (racemic) [Example 231, {3-[rac-trans-(1,2)-2-((R)-3-aminopiperidin-1-yl)indan-1-yloxy]phenyl}urea]",< 1 µM
11,"N[C@@H]1CCCN([C@H]2CCc3ccccc3[C@@H]2Oc2cccc3ncccc23)C1 (racemic) [Example 89, (R)-1-[rac-trans-(1,2)-1-(quinolin-5-yloxy)-1,2,3,4-tetrahydronaphthalen-2-yl]piperidin-3-ylamine]",1 to 10 µM
12,"c1ccc2c(c1)C[C@H](N1CCCC1)[C@H]2Oc1ccc(-c2nccs2)cc1 (racemic) [Example 364, 2-[4-(rac-trans-(1,2)-2-pyrrolidin-1-ylindan-1-yloxy)phenyl]thiazole]",1 to 10 µM
13,"Nc1ccc2c(O[C@H]3c4ccccc4CC[C@@H]3N3CCC[C@H](N)C3)cccc2c1 (racemic) [Example 189, (S)-1-[rac-trans-(1,2)-1-(6-aminonaphthalen-1-yloxy)-1,2,3,4-tetrahydronaphthalen-2-yl]piperidin-3-ylamine]",1 to 10 µM
14,"Cc1nnc(C)n1-c1ccc(O[C@H]2c3cc(Cl)cc(Cl)c3C[C@@H]2N2CCCNCC2)c(Cl)c1 [Example 344, 1-{trans-(1S,2S)-4,6-dichloro-1-[2-chloro-4-(3,5-dimethyl-[1,2,4]triazol-4-yl)phenoxy]indan-2-yl}-[1,4]diazepane]",< 1 µM
